Literature values in US8188116B2, “Agents for therapy efficacy monitoring and deep tissue imaging” (Vanderbilt University, priority 2002, dated 2012).

Test system: PBR
Settings: in words, background statement

COc1ccc(OC)c(CN(C(C)=O)c2cc(F)ccc2Oc2ccccc2)c1 [DAA1106]
binding affinity for PBR: fentomolar
